Measured values as given in patent publication US20100016331A1, “NOVEL COMPOUNDS” (priority 2006, published 2010).

Assays:
glucocorticoid receptor = biological target: T1, glucocorticoid receptor (Homo sapiens, UniProt P04150); assay: Glucocorticoid Receptor Binding Assay (fluorescence polarisation, competition with Alexa 555 labelled dexamethasone derivative); conditions: displacement of fluorescent dexamethasone, partially purified full length glucocorticoid receptor, 2 hours at room temperature; read-out: glucocorticoid binding pIC50 (converted)
T1 construct: a partially purified full length glucocorticoid receptor were added to the plates
T1 sequence (P04150 1-777): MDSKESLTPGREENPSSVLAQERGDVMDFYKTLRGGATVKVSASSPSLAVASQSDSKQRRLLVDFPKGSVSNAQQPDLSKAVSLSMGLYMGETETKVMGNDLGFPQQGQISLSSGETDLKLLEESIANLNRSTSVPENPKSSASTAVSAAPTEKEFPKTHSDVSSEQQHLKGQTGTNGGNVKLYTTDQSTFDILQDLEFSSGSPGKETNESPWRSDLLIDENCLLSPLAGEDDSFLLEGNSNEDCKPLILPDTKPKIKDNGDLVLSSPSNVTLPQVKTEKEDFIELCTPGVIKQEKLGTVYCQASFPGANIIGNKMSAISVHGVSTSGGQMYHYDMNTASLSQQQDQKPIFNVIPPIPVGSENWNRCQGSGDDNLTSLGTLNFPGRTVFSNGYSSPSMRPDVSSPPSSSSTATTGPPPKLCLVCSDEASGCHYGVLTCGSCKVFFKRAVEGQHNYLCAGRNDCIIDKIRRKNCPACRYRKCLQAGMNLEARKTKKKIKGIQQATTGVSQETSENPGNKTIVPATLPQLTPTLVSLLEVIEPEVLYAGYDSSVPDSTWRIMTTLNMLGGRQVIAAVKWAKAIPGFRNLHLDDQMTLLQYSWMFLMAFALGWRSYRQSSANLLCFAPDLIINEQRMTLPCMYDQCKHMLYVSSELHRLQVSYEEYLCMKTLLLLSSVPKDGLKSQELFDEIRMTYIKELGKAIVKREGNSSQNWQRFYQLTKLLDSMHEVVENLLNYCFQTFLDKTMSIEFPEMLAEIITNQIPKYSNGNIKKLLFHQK
Description: Glucocorticoid Receptor Binding Assay
The ability of compounds to bind to the glucocorticoid receptor was determined by assessing their ability to compete with an Alexa 555 fluorescently-labelled dexamethasone derivative. Compounds were solvated and dilutedin DMSO, and transferred directly into assay plates. Fluorescent dexamethasone and a partially purified full length glucocorticoid receptor were added to the plates, together with buffer components to stabilise the GR protein (including stabilisation peptide (Panvera catalogue number P2815)) andincubated at room temperature for 2 hours in the dark. Binding of each compound was assessed by analysing the displacement of fluorescent ligand by measuring the decrease in fluorescence polarisation signal from the mixture.

NFkB Activity = assay: Glucocorticoid Mediated Transrepression of NFkB Activity (A549 cells, NFkB dependent ELAM promoter, secreted placental alkaline phosphatase reporter, TNFα stimulated); assay type: cell-based; conditions: Human A549 lung epithelial cells, 3 ng/ml human recombinant TNFα, 16 hr; read-out: pEC50, transrepression of NFkB activity (converted)
Text: Glucocorticoid Mediated Transrepression of NFkB Activity
Human A549 lung epithelial cells were engineered to contain a secreted placental alkaline phosphatase gene under the control of the distal region of the NFkB dependent ELAM promoter as previously described in Ray, K. P., Farrow, S., Daly, M., Talabot, F. and Searle, N. “Induction of the E-selectin promoter by interleukin 1 and tumour necrosis factor alpha, andinhibition by glucocorticoids” Biochemical Journal (1997) 328: 707-15.
Compounds were solvated and dilutedin DMSO, and transferred directly into assay plates such that the final concentration of DMSO was 0.7%. Following the addition of cells (40K per well), plates were incubated for 1 hr prior to the addition of 3 ng/ml human recombinant TNFα. Following continued incubation for 16 hr, alkaline phosphatase activity was determined by measuring the change in optical density at 405 nm with time following the addition of 0.7 volumes of assay buffer (1 mg/ml p-nitrophenylphosphate dissolvedin 1M diethanolamine, 0.28M NaCl, 0.5 mM MgCl2). Dose response curves were constructed from which EC50 values were estimated.

IC50 (glucocorticoid receptor): < 316 nM
EC50 (NFkB Activity): < 10 nM
SMILES: COc1ccc(F)cc1C(C)(C)CC(O)(CNc1cc(C)cc2c1cnn2-c1cccc(C(=O)N[C@H]2CCOC2=O)c1)C(F)(F)F (single isomer, unassigned) [Example 21-A]
